Here are results for eleven compounds from patent US8383816B2, “Aryl-quinolyl compounds and their use” (Cancer Research Technology Limited, priority 2008, dated 2013).

One experiment deals with B-RAF (Homo sapiens, UniProt P15056, V600E). The experiment in a line: DELFIA Kinase Assay. Type of experiment: biochemical. The settings on record: 100 μM ATP. As for the experimental part:
Biological Methods—DELFIA Kinase Assay
Compounds were assessed by a kinase assay performed according to the following protocol.
DELFIA Kinase Buffer (DKB):
DKB1 (DKB with B-RAF and MEK Protein):
Combine 4950 μL of DKB and 50 μL of 2.5 mg/ml GST-MEK stock (to give […] of MEK per 40 μL). Then add 22.5 μL of B-RAF to give ˜0.2 μL of B-RAF per 40 μL.
DKB2 (DKB with MEK Protein):
Combine 4950 μL of DKB and 50 μL of 2.5 mg/ml GST-MEK stock (to give 1 mg of MEK per 40 μL). Use 500 μL of this for the blow out (BO) and the empty vector (EV) control.
100 mM stock, dilute to 500 μM to give 100 μM final concentration in assay.
Inhibitors (Test Compounds):
Phospho-MEK½ CST #9121S diluted 1:1000 in DELFIA assay buffer (AB). Preincubate antibody in the AB for 30 minutes at room temperature prior to use.
Anti-rabbit-Eur labelled secondary Perkin Elmer #AD0105 diluted 1:1000 in DELFIA assay buffer (AB). Preincubate antibody in the AB for 30 minutes at room temperature prior to use. (Primary and secondary antibodies were incubated together.)
1. Preblock wells with 5% milk in TBS for 1 hour.
2. Wash wells with 3× with 200 μL TBS.
3. Plate out 40 μL of DKB1 for all inhibitors (test compounds), DMSO control, and optionally other control compounds.
4. Plate out 40 μL of DKB2 for BO and EV wells.
5. Add inhibitors (test compounds) at 0.5 μL per well according to desired plate layout.
6. Add 0.5 μL DMSO to vehicle control wells.
7. Add 2 μL of B-RAF to BO and EV wells.
8. Pre-incubate with inhibitors (test compounds) for 10 minutes at room temperature with shaking.
9. Add 10 μL of 500 μM ATP stock, in DKB, to give 100 μM assay concentration.
10. Seal plates with TopSeal and incubate at room temperature with shaking for 45 minutes.
11. Wash plates 3× with 200 μL 0.1% Tween20/Water to terminate reaction.
12. Add 50 μL per well of antibody mix and incubate for 1 hour at room temperature with shaking.
13. Wash plates 3× with 200 μL 0.1% Tween20/Water.
14. Add 100 μL DELFIA enhancement solution per well, cover in foil, and incubate at room temperature for 30 minutes with shaking.
15. Read on Victor using Europium protocol.
(§1) Values for the blank (Empty Vector) are subtracted from all values. The DMSO controls are set as 100% activity and assay points (the response) are calculated as a percentage of the DMSO control. Data are plotted using Graphpad Prism software and a non-linear regression line is calculated using a variable slope sigmoidal dose-response equation (Y=Bottom+(Top−Bottom)/(1+10^((LogEC50−X)*HillSlope)) where X is the logarithm of concentration. Y is the response). The IC50 generated by this procedure is the concentration of the drug that produces a percentage control fluorescence value midway between the saturation, and zero-effect plateaus. Three independent assays are usually performed and the mean IC50 is reported.

In another experiment the test system is pERK. As to the kind of experiment: Cell Based Phospho-ERK Assay. The settings on record: 6 h, cells incubated with test compound for 6 hours. Here is the method:
Biological Methods—Cell Based Phosho-ERK Assay
Compounds were assessed using a cell-based assay which was performed according to the following protocol.
Plate out 16,000 cells/well in 99 μL medium in a 96-well plate.
1. Add 1 μL inhibitor to the cells […].
2. Incubate the cells with test compound for 6 hours at 37° C.
3. Aspirate off the solution from all of the wells.
4. Fixate the cells with 100 μL 4% formaldehyde/0.25% Triton X-100 PBS per well.
5. Incubate the plate for 1 hour at 4° C.
6. Aspirate off the fixing solution and add 300 μL TBS per well.
7. Leave the plate overnight at 4° C.
1. Wash the plate 2× with 200 μL PBS per well.
2. Block with 100 μL 5% dried milk in TBS.
3. Incubate the plate for 20 minutes at 37° C.
4. Wash the plate 2× with 0.1% tween/H2O.
5. Add 50 μL of 3 μg/mL primary antibody pERK (Sigma M8159), diluted in 5% milk powder/TBS, to each well.
6. Incubate the plate for 2 hours at 37° C.
7. Wash the plate 3× with 0.1% tween/H2O.
8. Add 50 μL of 0.45 μg/mL secondary Europium-labelled anti-mouse antibody (Perkin Elmer) to each well.
9. Incubate the plate for 1 hour at 37° C.
10. Wash the plate 3× with 0.1% tween/H2O.
11. Add 100 μL enhancement solution (Perkin Elmer) to each well.
12. Leave the plate for approximately 10 minutes at room temperature before gently shaking the plate.
13. Read Europium Time Resolved Fluorescence in Victor2.
14. Wash the plate 2× with 0.1% tween/H2O.
15. Measure the protein concentration with BCA (Sigma) by adding 200 μL of solution per well.
16. Incubate the plate for 30 minutes at 37° C.
17. Read absorbance levels at 570 nm in a plate reader.
Note that Europium counts are normalised for protein levels by dividing counts by absorbance.
as §1, with “(no cells)” for “(Empty Vector)”

Another experiment relates to WM266.4 melanoma cells. As to the kind of experiment: SRB Cell Proliferation Assay (SRB GI50). Type of experiment: cell-based. To be noted: Homo sapiens, WM 266-4, 144 h, 6 days growth. Here is the method: Biological Methods—SRB Cell Proliferation Assay (SRB GI50)
Cultures of WM266.4 melanoma cells are routinely cultured in DMEM/10% foetal bovine serum, at 37° C., in 5% CO2 water saturated atmosphere. Cultures are maintained in exponential growth phase by sub-culturing before having become confluent (3-5 day intervals). Single cell suspensions are prepared by harvesting an 80 cm^2 tissue culture flask with 5 mL commercial trypsin EDTA. After 5 minutes, the detached cells are mixed with 5 mL fully complemented culture medium and centrifugally pelleted (1000 rpm for 7 minutes). After aspirating the supernatant, the cell pellet is re-suspended in 10 mL fresh medium and the cells fully disaggregated by drawing the whole volume up/down 5 times through a 19-gauge needle. The concentration of the cells is determined using a haemocytometer (1/10 dilution). A suitable volume to give at least a 2-fold excess for the number of tests being conducted, typically 100-200 mL, is prepared by diluting the cell suspension to 10,000/mL, and 100 μL/well dispensed into 96 well plates using a programmable 8-channel peristaltic pump, giving 1000 cells/well, leaving column 12 blank. The plates are returned to the incubator for 24 hours to allow the cells to re-attach.
The compounds being tested are prepared at 20 mM in dimethylsulphoxide. Aliquots (200 μL) are diluted into 20 mL culture medium giving 200 μM, and 10 serial dilutions of 3× performed by transferring 5 mL to 10 mL. Aliquots (100 μL) of each dilution are added to the wells, using an 8-channel pipettor, thus performing a final further 2× dilution, and giving doses ranging from 100 μM to 0.005 μM. Column 11 receives plain culture medium only. Each compound is tested in quadruplicate, each replicate being the average of four wells, and two plates per compound.
After a further 6 days growth, the plates are emptied, and the cells are fixed in 10% trichloroacteic acid for 10 minutes on ice. After thorough rinsing in running tap water, the plates are dried, and stained by adding 50 μL of a solution of 0.1% sulphorhodamine-B in 1% acetic acid, for 10 minutes at room temperature. The stain is poured out and the plates thoroughly rinsed under a stream of 1% acetic acid, thus removing unbound stain, and dried. The bound stain is taken into solution by addition of 150 μL Tris buffer pH 8, followed by 10 minutes on a plate-shaker (approximately 500 rpm). The absorbance at 540 nm in each well (being proportional to the number of cells present) is determined using a plate reader.
After averaging the results in rows A-D and E-H, the blank value (row 12) is subtracted, and results expressed as percentage of the untreated value (row 11). […] The GI50 generated by this procedure is the concentration of the drug that produces a percentage control A540 midway between the saturation, and zero-effect plateaus.

Bounds are passed on as bounds.

Sequence of B-RAF (P15056 whole entry V600E): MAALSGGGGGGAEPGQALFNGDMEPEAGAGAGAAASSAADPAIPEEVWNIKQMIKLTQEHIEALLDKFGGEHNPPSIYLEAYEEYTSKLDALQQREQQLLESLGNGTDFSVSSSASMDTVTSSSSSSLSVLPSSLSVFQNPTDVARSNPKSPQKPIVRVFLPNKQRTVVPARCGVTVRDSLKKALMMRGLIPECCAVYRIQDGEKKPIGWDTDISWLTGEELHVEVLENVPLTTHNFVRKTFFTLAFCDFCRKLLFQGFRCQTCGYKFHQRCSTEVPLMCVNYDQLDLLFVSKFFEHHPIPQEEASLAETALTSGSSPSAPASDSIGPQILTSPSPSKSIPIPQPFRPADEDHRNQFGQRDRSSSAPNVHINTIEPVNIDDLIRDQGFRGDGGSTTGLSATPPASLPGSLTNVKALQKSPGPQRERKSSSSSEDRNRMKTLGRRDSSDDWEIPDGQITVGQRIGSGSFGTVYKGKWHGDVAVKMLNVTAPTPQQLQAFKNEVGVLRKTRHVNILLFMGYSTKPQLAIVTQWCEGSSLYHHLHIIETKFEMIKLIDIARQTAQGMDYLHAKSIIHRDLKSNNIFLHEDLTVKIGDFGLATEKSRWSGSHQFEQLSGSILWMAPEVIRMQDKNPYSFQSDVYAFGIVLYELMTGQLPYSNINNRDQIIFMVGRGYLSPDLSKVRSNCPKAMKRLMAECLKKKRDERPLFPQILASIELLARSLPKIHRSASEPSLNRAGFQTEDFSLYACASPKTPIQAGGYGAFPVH

As for `O=C(Nc1cccc(SC(F)(F)F)c1)Nc1ccc(Oc2ccnc3[nH]c(=O)[nH]c23)c2cccnc12` [AA-009, 4-[(5-Oxy-quinolinyl-8-amino)carbonylamino-(3-trifluoromethylthio-phenyl)]-pyridin-5,6-imidazolone], the IC50 against B-RAF is no more than 1 µM; in the experiment on pERK it was no more than 10 µM. This compound returned a GI50 with WM266.4 melanoma cells of no more than 10 µM.
`O=C(Nc1cc(C(F)(F)F)ccc1F)Nc1ccc(Oc2ccnc3[nH]c(=O)[nH]c23)c2cccnc12` [AA-010, 4-[(5-Oxy-quinolinyl-8-amino)carbonylamino-(2-fluoro-5-trifluoromethyl-phenyl)]-pyridin-5,6-imidazolone]: the IC50 against B-RAF was no more than 1 µM; with pERK it was no more than 10 µM. The compound further showed a concentration for 50% growth inhibition (GI50) in the experiment with WM266.4 melanoma cells of no more than 10 µM.
With `Cn1c(=O)[nH]c2c(Oc3ccc(NC(=O)Nc4ccc(Cl)c(C(F)(F)F)c4)c4ncccc34)ccnc21` [AA-014, 5-[(8-Amino-quinolinyl-5-oxy)carbonylamino-3-(2-trifluoromethyl-3-chloro-phenyl)]-pyridin-[2,3]-N-methylimidazol-2-one], the figures for the IC50 against B-RAF and in the experiment on pERK were no more than 1 µM and no more than 10 µM, respectively. The GI50 in the experiment with WM266.4 melanoma cells is no more than 10 µM.
Turning to `Cn1nc(C(C)(C)C)cc1NC(=O)Nc1ccc(Oc2ccnc3c2[nH]c(=O)n3C)c2cccnc12` [AA-017, 5-[(8-Amino-quinolinyl-5-oxy)carbonylamino-5-(1-methyl-3-t-butyl-imidazolyl)]-pyridin-[2,3]1-N-methylimidazol-2-one], the IC50 was no more than 1 µM at B-RAF and no more than 10 µM with pERK. The compound further gave a GI50 in the experiment with WM266.4 melanoma cells of no more than 10 µM.
`Cn1c(=O)[nH]c2c(Oc3ccc(NC(=O)Nc4cccc(C(C)(C)C)c4)c4ncccc34)ccnc21` [AA-018, 5-[(8-Amino-quinolinyl-5-oxy)carbonylamino-3-(t-butyl-phenyl)]-pyridin-[2,3]1-N-methylimidazol-2-one]: the half-maximal inhibitory concentration (IC50) against B-RAF was no more than 1 µM; in the experiment on pERK, no more than 10 µM. In the experiment on WM266.4 melanoma cells, the GI50 was no more than 10 µM.
For `Cc1nc2c(Oc3ccc(NC(=O)Nc4cc(C(F)(F)F)ccc4F)c4ncccc34)ccnc2[nH]c1=O` [BB-001, 5-[(8-Amino-quinolinyl-5-oxy)carbonylamino-(2-fluoro-5-trifloromethylphenyl)]-pyridin-[2,3]-3-methylpyrazin-2-one], the half-inhibitory concentration (IC50) is no more than 1 µM against B-RAF and no more than 10 µM in the experiment with pERK. Further, the GI50 in the experiment on WM266.4 melanoma cells was no more than 10 µM.
With `Cc1nc2c(Oc3ccc(NC(=O)Nc4cc(C(C)(C)C)nn4-c4ccccc4)c4ncccc34)ccnc2[nH]c1=O` [BB-003, 5-[(8-Amino-quinolinyl-5-oxy)carbonylamino-5-(1-N-p-phenyl-3-t-butyl-imidazolyl)]-pyridin-[2,3]-3-methylpyrazin-2-one], the values for the IC50 against B-RAF and with pERK were no more than 1 µM and no more than 10 µM, respectively. Moreover, in the experiment with WM266.4 melanoma cells, the 50% growth inhibitory concentration (GI50) was no more than 10 µM.
On to `O=C(Nc1cc(C(F)(F)F)ccc1F)Nc1ccc(Oc2ccnc3ncc(=O)[nH]c23)c2cccnc12` [BB-004, 5-[(8-Amino-quinolinyl-5-oxy)carbonylamino-5-(2-fluoro-5-trifluoromethyl-phenyl)]-pyridin-[2,3]pyrazin-3-one], for which the IC50 against B-RAF is no more than 1 µM; in the experiment on pERK, no more than 10 µM. The same compound returned a GI50 in the experiment with WM266.4 melanoma cells of no more than 10 µM.
Turning to `O=C(Nc1cc(C(F)(F)F)ccc1F)Nc1ccc(Oc2ccnc3[nH]c(=O)cnc23)c2cccnc12` [BB-005, 5-[(8-Amino-quinolinyl-5-oxy)carbonylamino-5-(2-fluoro-5-trifluoromethyl-phenyl)]-pyridin-[2,3]pyrazin-2-one], the half-inhibitory concentration (IC50) is no more than 1 µM at B-RAF and no more than 10 µM in the experiment with pERK. In the experiment on WM266.4 melanoma cells, the 50% growth inhibitory concentration (GI50) is no more than 10 µM.
For `Cc1nc2c(Oc3ccc(NC(=O)Nc4cc(C(C)(C)C)nn4C)c4ncccc34)ccnc2[nH]c1=O` [BB-006, 5-[(8-Amino-quinolinyl-5-oxy)carbonylamino-5-(1-methyl-3-t-butyl-imidazolyl)]-pyridin-[2,3]-3-methylpyrazin-2-one], the half-maximal inhibitory concentration (IC50) on B-RAF was no more than 1 µM; in the experiment on pERK, no more than 10 µM. Moreover, the GI50 with WM266.4 melanoma cells was no more than 10 µM.
For the compound `Cc1ccc(-n2nc(C(C)(C)C)cc2NC(=O)Nc2ccc(Oc3ccnc4[nH]c(=O)cnc34)c3cccnc23)cc1` [BB-007, 5-[(8-Amino-quinolinyl-5-oxy)carbonylamino-5-(1-N-p-tolyl-3-t-butyl-imidazolyl)]-pyridin-[2,3]pyrazin-2-one], the IC50 against B-RAF was no more than 1 µM; in the experiment on pERK, no more than 10 µM. Besides, the 50% growth inhibitory concentration (GI50) in the experiment on WM266.4 melanoma cells is no more than 10 µM.

What is called IC50 is the concentration that gives 50% inhibition. The low end stands for inhibition by little substance, the high end for a need for much substance. A word on the GI50: it is the concentration that inhibits growth by half.
